In patent US20090038025A1, “Selection system for maize transformation” (BASF Plant Science GmbH, priority 2005, published 2009):

Test system: corn immature embryos
Assay: Immature embryo germination inhibition bioassay (kill curves)
Format: cell-based, Zea mays
Settings: immature embryos 2 mm on germination medium, 27° C. in light; shoot and primary root length 7 days after dissection
Procedure: In order to establish effective concentrations of D-Serine and D-Alanine on inhibiting growth of tissue cultured corn cells, a bioassay system using immature embryos was applied. Immature embryos 2 mm in length were dissected onto germination medium with the selection agents, and incubated at 27° C. in light. The lengths of the shoot and primary root of a germinated seedling were measured 7 days after embryo dissection (FIGS. 1A and 1B).

Compound: N[C@H](CO)C(=O)O [D-Serine]
- concentration above which significant/pronounced growth inhibition occurs: higher than 9 mM

Compound: C[C@@H](N)C(=O)O [D-Alanine]
- concentration above which significant/pronounced growth inhibition occurs: higher than 2 mM
